Reference: patent US12064426B2, “Selective inhibitors of ROCK1 and ROCK2 protein kinases and uses thereof” (GENOSCO Inc., priority 2021, dated 2024)
pIC50: −log10 of the molar value.

How the values were obtained:
[1] = molecular target: T1, Recombinant ROCK1 (amino acids 1-477) (Homo sapiens, UniProt Q13464); experiment: ROCK inhibition assay, LANCE Ultra TR-FRET kinase assay (ROCK1); type: biochemical; settings: 1 μM ATP, 50 nM ULight-CREBtide substrate
T1 construct: Recombinant ROCK1 (amino acids 1-477); by word order, ROCK1 from Carna Biosciences
T1 sequence (Q13464 1-477): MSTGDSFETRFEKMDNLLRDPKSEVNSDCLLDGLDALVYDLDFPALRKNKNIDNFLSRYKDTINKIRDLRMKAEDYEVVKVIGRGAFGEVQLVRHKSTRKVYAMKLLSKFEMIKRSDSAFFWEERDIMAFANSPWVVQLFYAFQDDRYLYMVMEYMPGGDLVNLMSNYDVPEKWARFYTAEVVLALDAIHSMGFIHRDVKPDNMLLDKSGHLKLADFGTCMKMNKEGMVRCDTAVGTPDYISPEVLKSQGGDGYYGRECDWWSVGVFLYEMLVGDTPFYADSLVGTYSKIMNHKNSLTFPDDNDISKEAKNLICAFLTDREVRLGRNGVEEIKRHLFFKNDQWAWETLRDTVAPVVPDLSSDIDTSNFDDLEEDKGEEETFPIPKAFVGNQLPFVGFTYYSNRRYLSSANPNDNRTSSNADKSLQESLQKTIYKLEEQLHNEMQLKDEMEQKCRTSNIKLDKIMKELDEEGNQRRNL
How it was run: (§1)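 LANCE Ultra TR-FRET kinase assay with recombinant ROCK1 (aa 1-477) or ROCK2 (aa 5-554), 50 nM ULight-CREBtide and ATP at 1 μM (ROCK1) or 4 μM (ROCK2) in HEPES pH 7.5 with MgCl2, 1 h at room temperature. EDTA stop with Eu anti-phospho-CREB Ser133 antibody; 665/615 nm read gives IC50.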

[2] = molecular target: T2, Recombinant ROCK2 (amino acids 5-554) (Homo sapiens, UniProt O75116); experiment: ROCK inhibition assay, LANCE Ultra TR-FRET kinase assay (ROCK2); type: biochemical; settings: 4 μM ATP, 50 nM ULight-CREBtide substrate
T2 construct: ROCK2 (amino acids 5-554); by word order, ROCK2 from SignalChem
T2 sequence (O75116 5-554): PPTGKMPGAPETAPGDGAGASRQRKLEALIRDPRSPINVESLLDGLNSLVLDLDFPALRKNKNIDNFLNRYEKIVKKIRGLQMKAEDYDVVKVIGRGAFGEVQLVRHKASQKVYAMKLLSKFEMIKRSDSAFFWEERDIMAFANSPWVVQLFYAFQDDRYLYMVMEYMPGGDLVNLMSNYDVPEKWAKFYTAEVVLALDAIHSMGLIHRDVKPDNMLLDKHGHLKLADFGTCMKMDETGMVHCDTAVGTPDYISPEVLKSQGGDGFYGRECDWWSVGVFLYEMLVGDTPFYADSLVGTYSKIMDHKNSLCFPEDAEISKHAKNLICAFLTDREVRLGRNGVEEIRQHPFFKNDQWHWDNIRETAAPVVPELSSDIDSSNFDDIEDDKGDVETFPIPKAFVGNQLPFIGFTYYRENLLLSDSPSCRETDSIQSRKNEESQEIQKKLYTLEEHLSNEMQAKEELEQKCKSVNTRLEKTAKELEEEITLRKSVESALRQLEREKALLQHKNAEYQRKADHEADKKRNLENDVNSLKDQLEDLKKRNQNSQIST
How it was run: as §1

pIC50 [1] | pIC50 [2] | Structure (SMILES)
6.30 to 7.00 | 7.00 to 8.00 | Cc1nocc1-c1ccc2c(=O)n(Cc3cc(F)cc(C(=O)NC4CCOCC4)c3)ccc2c1 [Compound 148]
7.00 to 7.96 | > 8.00 | COc1cccc(Cn2cnc3cc(-c4c[nH]nc4C(F)F)ccc3c2=O)c1 [Compound 359]
6.30 to 7.00 | 7.00 to 8.00 | Nc1cc(-c2ccc3c(=O)n(Cc4cccc(C(=O)N[C@H]5CC[C@H](O)CC5)c4)ccc3c2)ccn1 [Compound 193]
7.00 to 7.96 | > 8.00 | Cc1nocc1-c1ccc2c(=O)n(Cc3cccc(C(=O)NC4CCN(CC(F)(F)F)CC4)c3)ccc2c1 [Compound 87]
6.30 to 7.00 | 7.00 to 8.00 | CNC(=O)c1cc(Cn2ccc3cc(-c4conc4C)ccc3c2=O)ccc1F [Compound 317]
7.00 to 7.96 | > 8.00 | CNC(=O)c1cccc([C@@H](C)n2cnc3cc(-c4cn[nH]c4N)ccc3c2=O)c1 [Compound 518]
< 6.30 | < 6.30 | CNC(=O)c1cccc(Cn2ccc3cc(N4CC5CC(C4)O5)ccc3c2=O)c1 [Compound 330]
7.00 to 7.96 | > 8.00 | C[C@H](c1cccc(C(=O)NC2COC2)c1)n1cnc2cc(-c3cn[nH]c3N)ccc2c1=O [Compound 520]
7.00 to 7.96 | > 8.00 | CNC(=O)c1cccc(Cn2cnc3cc(-c4cn[nH]c4C(F)F)ccc3c2=O)c1 [Compound 391]
6.30 to 7.00 | > 8.00 | O=C(NC1CCN(C2COC2)CC1)c1cccc(Cn2ccc3cc(-c4c[nH]nc4C(F)(F)F)ccc3c2=O)c1 [Compound 48]
7.00 to 7.96 | > 8.00 | CNC(=O)c1cc(F)cc(Cn2cnc3cc(-c4cn[nH]c4C(F)(F)F)ccc3c2=O)c1 [Compound 386]
< 6.30 | < 6.30 | CNC(=O)c1cccc(Cn2ccc3cc(-c4cnnn4C)ccc3c2=O)c1 [Compound 327]
7.00 to 7.96 | > 8.00 | CNC(=O)c1cccc(Cn2cc(CC(C)O)c3cc(-c4cn[nH]c4C(F)(F)F)ccc3c2=O)c1 (stereo not shown) [Compound 547]
6.30 to 7.00 | 7.00 to 8.00 | O=C(NCC1CCN(C2COC2)CC1)c1cccc(Cn2ccc3cc(N4CCOCC4)ccc3c2=O)c1 [Compound 227]
< 6.30 | < 6.30 | CNC(=O)c1cccc(Cn2ccc3cc(-c4cnoc4)ccc3c2=O)c1 [Compound 300]
> 8.00 | > 8.00 | CNC(=O)c1cccc(Cn2cc(CCN(C)C)c3cc(-c4cn[nH]c4C(F)(F)F)ccc3c2=O)c1 [Compound 548]
> 8.00 | > 8.00 | COc1cccc(C(CN)n2cnc3cc(-c4cn[nH]c4C)ccc3c2=O)c1 (stereo not shown) [Compound 498]
7.00 to 7.96 | > 8.00 | [2H]C([2H])([2H])NC(=O)c1cccc(Cn2ccc3cc(-c4cn[nH]c4Cl)ccc3c2=O)c1 [Compound 291]
7.00 to 7.96 | > 8.00 | Cn1ccc(NC(=O)c2cc(F)cc(Cn3ccc4cc(-c5cn[nH]c5C(F)(F)F)ccc4c3=O)c2)n1 [Compound 128]
7.00 to 7.96 | > 8.00 | CC(C)NC(=O)c1cccc(Cn2cnc3cc(-c4cn[nH]c4C(F)(F)F)ccc3c2=O)c1 [Compound 369]

pIC50 [1] | pIC50 [2] | Structure (SMILES)
6.30 to 7.00 | 7.00 to 8.00 | Cn1nccc1-c1cc2ccn(Cc3cc(F)cc(C(=O)NCC4COC4)c3)c(=O)c2cn1 [Compound 269]
> 8.00 | > 8.00 | CNC(=O)c1cc(F)cc(Cn2ccc3cc(-c4c[nH]nc4Cl)ncc3c2=O)c1 [Compound 249]
> 8.00 | > 8.00 | Cc1nocc1-c1ccc2c(=O)n([C@H](C)c3cccc(C(=O)NCC4CCN(C)CC4)c3)cnc2c1 [Compound 472]
6.30 to 7.00 | 7.00 to 8.00 | O=C(NCC1CCN(CC(F)(F)F)CC1)c1cc(F)cc(Cn2ccc3cc(N4CCOCC4)ccc3c2=O)c1 [Compound 221]
> 8.00 | > 8.00 | C[C@H](c1cccc(C(=O)NCc2ccc(F)nc2)c1)n1cnc2cc(-c3cn[nH]c3N)ccc2c1=O [Compound 522]
7.00 to 7.96 | > 8.00 | C[C@H](c1cccc(C(=O)NC2CC2)c1)n1cnc2cc(-c3cn[nH]c3Br)ccc2c1=O [Compound 515]
6.30 to 7.00 | 7.00 to 8.00 | CNC(=O)c1cccc(Cn2ccc3cc(-c4ccnc(N)c4)ncc3c2=O)c1 [Compound 244]
7.00 to 7.96 | 7.00 to 8.00 | NCC(c1cccc(Cl)c1)n1cnc2cc(-c3ccnc(F)c3)ccc2c1=O (stereo not shown) [Compound 492, 3-(2-amino-1-(3-chlorophenyl)ethyl)-7-(2-fluoropyridin-4-yl)quinazolin-4(3H)-one]
7.00 to 7.96 | > 8.00 | CNC(=O)c1cccc(Cn2cc(C(C)O)c3cc(-c4c[nH]nc4N)ccc3c2=O)c1 (stereo not shown) [Compound 544]
7.00 to 7.96 | 7.00 to 8.00 | COc1cccc(C(CO)n2cnc3cc(-c4cn[nH]c4C(F)(F)F)ccc3c2=O)c1 (stereo not shown) [Compound 490]
6.30 to 7.00 | 7.00 to 8.00 | CC(C)N1CCC(CNC(=O)c2cc(F)cc(Cn3ccc4cc(N5CCOCC5)ccc4c3=O)c2)CC1 [Compound 224]
7.00 to 7.96 | > 8.00 | O=C(N[C@H]1CC[C@H](O)CC1)c1cc(F)cc(Cn2ccc3cc(-c4c[nH]nc4C(F)(F)F)ncc3c2=O)c1 [Compound 260]
7.00 to 7.96 | > 8.00 | Cc1nocc1-c1ccc2c(=O)n(Cc3cccc(C(=O)NCc4ccccc4)c3)cc(C(C)O)c2c1 (stereo not shown) [Compound 539]
6.30 to 7.00 | 7.00 to 8.00 | CC(O)c1cn(Cc2cccc(C(=O)NC3CC3)c2)c(=O)c2ccc(-c3c[nH]nc3C(F)(F)F)cc12 (stereo not shown) [Compound 533]
6.30 to 7.00 | 7.00 to 8.00 | Cc1nocc1-c1ccc2c(=O)n(Cc3cc(F)cc(C(=O)NCCN4CCOCC4)c3)ccc2c1 [Compound 143]
6.30 to 7.00 | 7.00 to 8.00 | CNC(=O)c1cc(F)cc(Cn2ccc3cc(-c4ccnn4C)ncc3c2=O)c1 [Compound 245]
6.30 to 7.00 | > 8.00 | Cc1n[nH]cc1-c1ccc2c(=O)n(Cc3cccc(C(=O)Nc4ccn(C)n4)c3)ccc2c1 [Compound 32]
7.00 to 7.96 | > 8.00 | Cc1nocc1-c1ccc2c(=O)n(Cc3cc(F)cc(C(=O)NCC4CCN(C5CC5)CC4)c3)ccc2c1 [Compound 151]
7.00 to 7.96 | > 8.00 | CNC(=O)c1cc(F)cc([C@@H](C)n2cnc3cc(-c4cn[nH]c4C(F)F)ccc3c2=O)c1 [Compound 463]
< 6.30 | 6.30 to 7.00 | N#Cc1cccc(C(CN)n2cnc3cc(-c4ccnc(F)c4)ccc3c2=O)c1 (stereo not shown) [Compound 502, 3-(2-amino-1-(7-(2-fluoropyridin-4-yl)-4-oxoquinazolin-3(4H)-yl)ethyl)benzonitrile]

pIC50 [1] | pIC50 [2] | Structure (SMILES)
7.00 to 7.96 | 7.00 to 8.00 | C[C@H](c1cccc(C(=O)NCCO)c1)n1cnc2cc(-c3cn[nH]c3C(F)(F)F)ccc2c1=O [Compound 453]
> 8.00 | > 8.00 | Cn1nccc1-c1ccc2c(=O)n(Cc3cccc(C(=O)Nc4ccc5c(c4)CNCC5)c3)ccc2c1 [Compound 125]
7.00 to 7.96 | > 8.00 | CNC(=O)c1cccc(Cn2cc(CCO)c3cc(-c4cn[nH]c4Cl)ccc3c2=O)c1 [Compound 550]
7.00 to 7.96 | > 8.00 | CC(c1cccc(O)c1)n1ccc2cc(-c3c[nH]nc3C(F)F)ccc2c1=O (stereo not shown) [Compound 15]
< 6.30 | 6.30 to 7.00 | Cc1nocc1-c1ccc2c(=O)n(Cc3cccc(C(=O)Nc4ccn(C)n4)c3)ccc2c1 [Compound 89]
< 6.30 | < 6.30 | Cn1nccc1-c1ccc2c(c1)NCN([C@H](CO)c1cccc(Cl)c1)C2=O [Compound 526]
> 8.00 | > 8.00 | O=C(NC1CCNCC1)c1cc(F)cc(Cn2ccc3cc(-c4c[nH]nc4C(F)(F)F)ccc3c2=O)c1 [Compound 131]
> 8.00 | > 8.00 | C[C@H](c1cccc(C(=O)NCc2ccc(F)nc2)c1)n1cnc2cc(-c3cn[nH]c3Br)ccc2c1=O [Compound 516]
7.00 to 7.96 | > 8.00 | [2H]C([2H])([2H])NC(=O)c1cc(F)cc(Cn2cnc3cc(-c4cn[nH]c4C(F)F)ccc3c2=O)c1 [Compound 402]
> 8.00 | > 8.00 | CC(O)c1cn(Cc2cccc(C(=O)NC3CCOCC3)c2)c(=O)c2ccc(-c3c[nH]nc3C(F)F)cc12 (stereo not shown) [Compound 536]
7.00 to 7.96 | > 8.00 | Cn1ccc(NC(=O)c2cc(F)cc(Cn3ccc4cc(-c5ccnc(N)c5)ccc4c3=O)c2)n1 [Compound 201]
> 8.00 | > 8.00 | CNC(=O)c1cccc(Cn2cc(CC(C)O)c3cc(-c4cn[nH]c4Cl)ccc3c2=O)c1 (stereo not shown) [Compound 560]
> 8.00 | > 8.00 | [2H]C([2H])([2H])NC(=O)c1cccc(Cn2cnc3cc(-c4cn[nH]c4Cl)ccc3c2=O)c1 [Compound 405]
> 8.00 | > 8.00 | CNC(=O)c1cccc(Cn2ccc3cc(-c4cn[nH]c4)ccc3c2=O)c1 [Compound 308]
7.00 to 7.96 | > 8.00 | CNC(=O)c1cccc(C(C)n2ccc3cc(-c4conc4C)ccc3c2=O)c1 (stereo not shown) [Compound 309]
< 6.30 | < 6.30 | CNC(=O)c1cccc(Cn2ccc3cc(C4=CCOC4)ccc3c2=O)c1 [Compound 304]
7.00 to 7.96 | > 8.00 | [2H]C([2H])([2H])NC(=O)c1cccc(Cn2ccc3cc(-c4cn[nH]c4Br)ccc3c2=O)c1 [Compound 513]
6.30 to 7.00 | 7.00 to 8.00 | Nc1cc(-c2ccc3c(=O)n(Cc4cccc(C(=O)NC5CCOCC5)c4)cnc3c2)ccn1 [Compound 435]
7.00 to 7.96 | > 8.00 | [2H]C([2H])([2H])NC(=O)c1cccc(Cn2ccc3cc(-c4conc4C)ccc3c2=O)c1 [Compound 307]
